PMC6891756, “Synthesis and Biological Evaluation of Novel Aminochalcones as Potential Anticancer and Antimicrobial Agents” (Molecules, 2019)
In brackets after ≈: the same amount, converted by molar mass.

Experiments:
[1] = test system: HT-29; experiment: SRB antiproliferative assay, HT-29; format: cell-based, human; details: Homo sapiens, HT-29; SRB, 48 h, 1–100 µg·mL^−1; ND = not detected in the tested concentration range
Procedure: (§1) Anticancer activity was evaluated using the sulforhodamine B assay (SRB) on four different human colon cancer cell lines: HT-29, LS180, LoVo and LoVo/DX and green monkey kidney fibroblasts COS7 (ATCC, Manassas, VA, USA). Cell lines HT-29 and COS7 were cultured in α-MEM medium (IIET PAS, Wrocław, Poland), LS180 in OptiMEM medium (IIET PAS), LoVo and LoVo/DX in mixture of α-MEM and OptiMEM medium (1:1 (v:v)). Each culture medium was supplemented with 10% fetal bovine serum, 2 mM glutamine, 100 μg·mL^−1 penicillin, 100 μg·mL^−1 streptomycin and 0.25 μg·mL^−1 amphotericin (all supplements purchased from Gibco (Paisley, UK). Cells were incubated at 37 °C, 5% CO2 in HeraCELL 150i incubator (Thermo Fisher Scientific, Waltham, MA, USA).
(§2) For the SRB assay, cells were seeded onto 96-well plates (Sarstedt, Nümbrecht, Germany) at a density of 5·10^3/well and cultured overnight as described above. Then, the growth medium was gently removed and replaced with fresh medium, supplemented with aminochalcone derivatives in the concentration ranging from 1 µg·mL^−1 to 100 µg·mL^−1. All stock solutions were prepared in DMSO at a concentration of 10 mg·mL^−1. Cells were incubated for 48 h and then the SRB assay was performed as described previously. Each experiment was performed in quadruplicate. The final results were reported as the IC50 values calculated for three independent experiments. Cisplatin (Acros Organics, Waltham, MA, USA) and doxorubicin (Fisher BioReagents, Waltham, MA, USA) were used as positive controls of the test.

[2] = test system: LS180; experiment: SRB antiproliferative assay, LS180; format: cell-based, human; details: Homo sapiens, LS180, 48 h, 1–100 µg·mL^−1, ND = not detected in the tested concentration range
Procedure: as §1, §2

[3] = test system: LoVo; experiment: SRB antiproliferative assay, LoVo; format: cell-based, human; details: Homo sapiens, LoVo, 48 h, 1–100 µg·mL^−1, ND = not detected in the tested concentration range
Procedure: as §1, §2

[4] = test system: LoVo/DX; experiment: SRB antiproliferative assay, LoVo/DX; format: cell-based, human; details: Homo sapiens, LoVo/DX, 48 h, 1–100 µg·mL^−1, ND = not detected in the tested concentration range
Procedure: as §1, §2

[5] = SRB assay, normal fibroblasts COS7; format: cell-based, green monkey; details: green monkey, COS7 kidney fibroblasts (normal cell line), ND = not detected in the tested concentration range
Procedure: as §1, §2

[6] = test system: Escherichia coli ATCC10536; experiment: Microbial growth curve screening, E. coli; format: cell-based; details: 0.1% (w/v), OD at 560 nm, control 1.61
Procedure: (§3) The antimicrobial screening tests were performed on two strains of bacteria: E. coli ATCC10536 and S. aureus DSM799, strain of yeast C. albicans DSM1386 and three strains of fungi: F. linii KB-F1, A. alternata CBS1526 and A. niger DSM1957. All microorganisms were obtained from the collection of the Faculty of Biotechnology and Food Microbiology, Wrocław University of Environmental and Life Sciences. The bacteria were cultured in nutrient broth (Biocorp, Warsaw, Poland), yeast and fungi in YM medium (3 g yeast extract, 3 g malt extract, 5 g bacteriological peptone and 10 g of glucose dissolved in 1 L of distilled water). The tests were carried out in 100-well microtiter plates. To each well 280 μL of culture medium, 10 μL of microorganism suspension and 10 μL of aminochalcone (1–18) dissolved in dimethyl sulfoxide (3% (w/v)) were added. The final concentration of the tested compound (1–18) was 0.1% (w/v). Each experiment were performed in 3 replications. The optical density of the cell suspension was measured on Bioscreen C (Automated Growth Curve Analysis System Lab System, Vantaa, Finland) at 560 nm automatically, at regular intervals of 30 min for 2–3 days. Cell cultures were maintained at 28 °C on a continuous shaker. To prepare the growth curves for each strain, the mean values of the absorbance in a function of time were used. The resulting antimicrobial activity was expressed as the increase of optical density (ΔOD) and was compared to that of the control cultures in the medium supplemented with dimethyl sulfoxide and also with reference substances: oxytetracycline (against bacteria), cycloheximide (against yeast) and nystatin (against fungi) (Sigma Aldrich).

[7] = test system: Staphylococcus aureus DSM799; experiment: Microbial growth curve screening, S. aureus; format: cell-based; details: 0.1% (w/v); for ∆OD S. aureus: OD at 560 nm, control 1.67; for Lag-phase S. aureus: control 2.5 h
Procedure: as §3

[8] = test system: Candida albicans DSM1386; experiment: Microbial growth curve screening, C. albicans; format: cell-based; details: 0.1% (w/v); for ∆OD C. albicans: OD at 560 nm, control 1.58; for Lag-phase C. albicans: control 3.0 h
Procedure: as §3

[9] = test system: Alternaria alternata CBS1526; experiment: Microbial growth curve screening, A. alternata; format: cell-based; details: 0.1% (w/v); for ∆OD A. alternata: OD at 560 nm, control 1.86; for Lag-phase A. alternata: control 16.5 h
Procedure: as §3

[10] = test system: Fusarium linii KB-F1; experiment: Microbial growth curve screening, F. linii; format: cell-based; details: 0.1% (w/v); for ∆OD F. linii: OD at 560 nm, control 1.95; for Lag-phase F. linii: control 13.5 h
Procedure: as §3

[11] = test system: Aspergillus niger DSM1957; experiment: Microbial growth curve screening, A. niger; format: cell-based; details: 0.1% (w/v); for ∆OD A. niger: OD at 560 nm, control 2.14; for Lag-phase A. niger: control 11.0 h
Procedure: as §3

[12] = test system: Escherichia coli ATCC10536; experiment: MIC evaluation (broth method), E. coli; format: cell-based; details: 48–72 h, read-out: Minimal inhibitory concentration E. coli
Procedure: (§4) Sterile 96-well microtiter plates (Sarstedt) with nutrient broth (for bacteria) (Biocorp) or YM medium (for yeast and filamentous fungi) were inoculated with a standardized cell suspension of bacteria and yeast or fungal spores of 10^5 cell·mL^−1, and supplemented with aminochalcones dissolved in DMSO. […] All analysis were conducted in triplicates. The plates were incubated at 30 °C (bacteria and yeast) or 25 °C (filamentous fungi) for 48–72 h. The results were measured with the Spark® Multimode Microplate Reader (Tecan, Männedorf, Switzerland) at a 560 nm wavelength. The minimal inhibitory concentration was defined as the lowest concentration of a tested compound that completely restricted the growth of the microorganism. In order to verify the obtained results, microbial cultures subjected to each concentration of aminochalcone were inoculated onto nutrient agar or YM plates and incubated as described above. The lack of growth on agar plate was a confirmation of the MIC of the tested compound. The resulting MIC values were compared with the reference substances: oxytetracycline (against bacteria), cycloheximide (against yeast) and nystatin (against fungi) (Sigma Aldrich).

[13] = test system: Staphylococcus aureus DSM799; experiment: MIC evaluation (broth method), S. aureus; format: cell-based; details: 48–72 h, read-out: Minimal inhibitory concentration S. aureus
Procedure: as §4

SMILES	IC50 [1] [µg/mL]	IC50 [2] [µg/mL]	IC50 [3] [µg/mL]	IC50 [4] [µg/mL]	IC50 at 48 h [5] [µg/mL]	∆OD E. coli [6]	∆OD S. aureus [7]	Lag-phase S. aureus [7] [h]	∆OD C. albicans [8]	Lag-phase C. albicans [8] [h]	∆OD A. alternata [9]	Lag-phase A. alternata [9] [h]	∆OD F. linii [10]	Lag-phase F. linii [10] [h]	∆OD A. niger [11]	Lag-phase A. niger [11] [h]	MIC [12] [µg/mL]	MIC [13] [µg/mL]	melting point [°C]
CCc1ccc(/C=C/C(=O)c2cccc(N)c2)cc1 [Compound 5, 3′-Amino-4-ethylchalcone]	3.43 ± 0.05 (≈ 13.6 µM)	4.16 ± 0.12 (≈ 16.6 µM)	1.79 ± 0.1 (≈ 7.12 µM)	2.35 ± 0.08 (≈ 9.35 µM)	4.42 ± 0.27 (≈ 17.6 µM)	0.0	0.98	29.5	0.61	9.5	0.39	12.0	0.80	8.0	0.36	25.5	1 (≈ 3.98 µM)		
Nc1cccc(C(=O)/C=C/c2ccc(C(=O)O)cc2)c1 [Compound 8, 3′-Amino-4-carboxychalcone]	12.3 ± 0.32 (≈ 46.1 µM)	9.22 ± 0.72 (≈ 34.5 µM)	31.5 ± 0.13 (≈ 118 µM)	27.44 ± 0.11 (≈ 103 µM)	15.9 ± 1.04 (≈ 59.6 µM)	0.0	0.0		0.28	23.0	1.14	26.0	0.45	13.0	1.11	39.0	0.125 (≈ 0.468 µM)	0.125 (≈ 0.468 µM)	
Nc1ccc(C(=O)/C=C/c2ccc(C(=O)O)cc2)cc1 [Compound 9, 4′-Amino-4-carboxychalcone]	32.4 ± 0.99 (≈ 121 µM)	18.4 ± 0.19 (≈ 68.7 µM)	73.5 ± 0.98 (≈ 275 µM)	66.2 ± 1.32 (≈ 248 µM)	32 ± 8.11 (≈ 120 µM)	0.0	0.35	37.0	0.97	8.5	1.12	12.5	0.99	13.5	0.51	35.0	0.125 (≈ 0.468 µM)		
Nc1cccc(C(=O)/C=C/c2ccc(OCc3ccccc3)cc2)c1 [Compound 14, 3′-Amino-4-benzyloxychalcone]	7.54 ± 0.18 (≈ 22.9 µM)	6.51 ± 0.62 (≈ 19.8 µM)		5.19 ± 0.41 (≈ 15.8 µM)	7.61 ± 0.43 (≈ 23.1 µM)	0.0		33.5		4.5		12.0		6.0		20.5	0.0625 (≈ 0.19 µM)		115 to 120
Nc1ccc(C(=O)/C=C/c2ccc(OCc3ccccc3)cc2)cc1 [Compound 15, 4′-Amino-4-benzyloxychalcone]	7.83 ± 0.14 (≈ 23.8 µM)	8.23 ± 0.49 (≈ 25 µM)	7.64 ± 0.53 (≈ 23.2 µM)	6.66 ± 0.48 (≈ 20.2 µM)	13.4 ± 2.78 (≈ 40.6 µM)	0.0	0.22	8.0	0.37	16.0	1.04	19.5	0.50	11.5	0.57	25.0	0.125 (≈ 0.379 µM)		
COc1cc(/C=C/C(=O)c2ccc(N)cc2)ccc1OCc1ccccc1 [Compound 18, 4′-Amino-4-benzyloxy-3-methoxychalcone]	5.01 ± 0.49 (≈ 13.9 µM)	4.59 ± 0.29 (≈ 12.8 µM)	3.54 ± 0.3 (≈ 9.85 µM)			0.0	0.26	33.5	0.68	4.5	0.22	21.5	0.41	6.5	0.65	28.5	0.5 (≈ 1.39 µM)		
COc1cccc2c1C(=O)c1c(O)c3c(c(O)c1C2=O)C[C@@](O)(C(=O)CO)C[C@@H]3O[C@H]1C[C@H](N)[C@H](O)[C@H](C)O1 [Compound 20, Doxorubicin, reference compound]	0.33 ± 0.02 (≈ 0.607 µM)	0.05 ± 0.02 (≈ 0.092 µM)	0.73 ± 0.18 (≈ 1.34 µM)	5.32 ± 1.44 (≈ 9.79 µM)	3.55 ± 1.15 (≈ 6.53 µM)														
CN(C)[C@@H]1C(O)=C(C(N)=O)C(=O)[C@@]2(O)C(O)=C3C(=O)c4c(O)cccc4[C@@](C)(O)[C@H]3[C@H](O)[C@@H]12 [Oxytetracycline, reference compound]						0.0	0.0										0.5 (≈ 1.09 µM)	0.125 (≈ 0.271 µM)	
